Assay results: paper PMC5338263, “GS-5734 and its parent nucleoside analog inhibit Filo-, Pneumo-, and Paramyxoviruses” (Scientific Reports, 2017)
“Also recorded” adds a separate entry of the source. Like-named read-outs stand apart in the source and are kept apart here.

How the values were obtained:
[1] = system: RVFV Rec. ZH501-GFP; assay: microbe, parasite or virus in culture; assay type: cell-based, Rift Valley Fever virus
[2] = system: CCHF Rec. IbAr 10200; assay: organism not typed; assay type: cell-based, Crimean Congo Hemorrhagic Fever virus
[3] = system: VSV New Jersey; assay: microbe, parasite or virus in culture; assay type: cell-based, Vesicular Stomatitis virus
[4] = system: EBOV Rec. Makona-ZSG
[5] = system: EBOV Makona
[6] = system: MARV Rec. Bat371-GFP
[7] = system: NiV Rec. M-Luc2AM
[8] = system: NiV Rec. M-GFP2AM
[9] = system: NiV M-1999
[10] = system: hPIV3 Rec. JS-GFP
[11] = system: MV Rec. rMV^EZGFP(3)
[12] = system: reporter and wild-type filo-, pneumo-, and paramyxoviruses
[13] = system: HCV; settings: cited from earlier work
[14] = system: DenV; settings: cited from earlier work
[15] = system: EBOV Rec. Mayinga-Gluc (Ebola virus); assay: in vitro; settings: human
[16] = system: EBOV Rec. Makona-ZSG (Ebola virus); assay: in vitro; settings: human
[17] = system: MARV Rec. Bat371-GFP (Marburg virus); assay: in vitro; settings: human
[18] = system: NiV Rec. M-GFP2AM (Nipah virus); assay: in vitro; settings: human
[19] = system: NiV M-1999 (Nipah virus); assay: in vitro; settings: human
[20] = system: hPIV3 Rec. JS-GFP (parainfluenza type 3 virus); assay: in vitro; settings: human
[21] = system: MV Rec. rMV^EZGFP(3) (Measles virus); assay: in vitro; settings: human
[22] = system: MuV IA 2006 (Mumps virus); assay: in vitro; settings: human
[23] = system: RSV Rec. rgRSV224 (A2) (respiratory syncytial virus); assay: in vitro; settings: human
[24] = system: AHFV 200300001; assay: organism not typed; settings: A549
[25] = system: EBOV Rec. Mayinga-GFP; assay: microbe, parasite or virus in culture; settings: Zaire ebolavirus, Huh-7
[26] = system: EBOV Rec. Mayinga-Gluc; assay: microbe, parasite or virus in culture; settings: Zaire ebolavirus, Huh-7
[27] = system: EBOV Rec. Makona-ZSG; assay: microbe, parasite or virus in culture; settings: Zaire ebolavirus, Huh-7
[28] = system: EBOV Makona; assay: microbe, parasite or virus in culture; settings: Zaire ebolavirus
[29] = system: NiV Rec. M-Luc2AM; assay: microbe, parasite or virus in culture; settings: Henipavirus nipahense, HeLa
[30] = system: NiV Rec. M-GFP2AM; assay: microbe, parasite or virus in culture; settings: Henipavirus nipahense, HeLa
[31] = system: NiV M-1999; assay: microbe, parasite or virus in culture; settings: Henipavirus nipahense
[32] = system: NiV B-2004; assay: microbe, parasite or virus in culture; settings: Henipavirus nipahense
[33] = system: hPIV3 Rec. JS-GFP; assay: microbe, parasite or virus in culture; settings: Human respirovirus 3, HeLa
[34] = system: MV Rec. rMV^EZGFP(3); assay: microbe, parasite or virus in culture; settings: Measles morbillivirus, HeLa
[35] = system: MuV IA 2006; assay: microbe, parasite or virus in culture; settings: Mumps orthorubulavirus, HeLa
[36] = system: RSV Rec. rgRSV224 (A2); assay: microbe, parasite or virus in culture; settings: human respiratory syncytial virus, HeLa
[37] = system: LASV Josiah; assay: microbe, parasite or virus in culture; settings: Mammarenavirus lassaense, Huh-7
[38] = system: TBEV Hypr; assay: microbe, parasite or virus in culture; settings: Tick-borne encephalitis virus, A549
[39] = Cell viability assay (CellTiter-Glo 2.0), HeLa; settings: human, uninfected HeLa cells
[40] = Cell viability assay (CellTiter-Glo 2.0), Huh7; settings: human, uninfected Huh7 cells
[41] = Vesicular stomatitis virus, HeLa
[42] = not tested in this paper, no reference given

Compound: CCC(CC)COC(=O)[C@H](C)N[P@](=O)(OC[C@H]1O[C@@](C#N)(c2ccc3c(N)ncnn23)[C@H](O)[C@@H]1O)Oc1ccccc1 [GS-5734]
- EC50 [1]: minimal to no antiviral activity; also recorded: No inhibition
- EC50 ([1]; Rift Valley fever virus, Huh-7): > 10000 nM
- EC50 [2]: minimal to no antiviral activity; also recorded: No inhibition
- EC50 ([2]; Huh-7): > 10000 nM
- EC50 [3]: not inhibited; also recorded: No inhibition
- EC50 [3, 41]: > 10000 nM
- EC50 [4]: 14 nM
- EC50 [5]: 3 nM
- reduction in virus yield [5]: greater than 4
- EC50 [6]: 14 nM
- EC50 [7]: 45 nM
- EC50 [8]: 29 nM
- reduction in virus yield [9]: greater than 4
- EC50 [10]: 18 nM
- EC50 [11]: 37 nM
- EC50 lower than the 50% cytotoxic concentrations [12]: ≥ 150 fold
- higher antiviral potency relative to Nuc [12]: 10 to 100 fold
- inhibition of virus [13, 42]: inhibited
- inhibition of virus [14, 42]: inhibited
- selectivity ratio [15]: 476
- selectivity ratio [16]: 714
- selectivity ratio [17]: 714
- selectivity ratio [18]: 286
- selectivity ratio [19]: 180
- selectivity ratio [20]: 461
- selectivity ratio [21]: 224
- selectivity ratio [22]: 10
- selectivity ratio [23]: 395
- EC50 [24]: 4150 ± 480 nM
- EC90 [24]: 17600 nM
- EC50 [25]: 66 nM
- EC90 [25]: 203 nM
- EC50 [26]: 20.7 nM
- EC90 [26]: 53 nM
- EC50 [27]: 13.6 ± 1 nM
- EC90 [27]: 45 nM
- EC50 ([28]; Macrophage): 3.4 nM
- EC90 ([28]; Macrophage): 19 nM
- EC50 [29]: 44.9 ± 1.8 nM
- EC90 [29]: 126 nM
- EC50 [30]: 28.7 nM
- EC90 [30]: 53 nM
- EC50 [31]: 47 nM
- EC90 [31]: 83 nM
- EC50 [32]: 32.4 ± 2.7 nM
- EC90 [32]: 106 nM
- EC50 [33]: 17.7 ± 3.7 nM
- EC90 [33]: 350 nM
- EC50 [34]: 36.5 ± 28 nM
- EC90 [34]: 73 nM
- EC50 [35]: 790 nM
- EC90 [35]: 3400 nM
- EC50 [36]: 21.1 ± 1.1 nM
- EC90 [36]: 59 nM
- EC50 [37]: 4490 ± 480 nM
- EC90 [37]: 5100 nM
- EC90 [38]: 3500 nM
- CC50 at 72 h [39]: 8300 nM
- CC50 at 72 h [40]: > 10000 nM

Compound: N#C[C@@]1(c2ccc3c(N)ncnn23)O[C@H](CO)[C@@H](O)[C@H]1O [Nuc]
- EC50 [1]: little to no antiviral activity; also recorded: No inhibition
- EC50 ([1]; Rift Valley fever virus, Huh-7): > 50000 nM
- EC50 [2]: little to no antiviral activity; also recorded: No inhibition
- EC50 ([2]; Huh-7): > 50000 nM
- EC50 [3]: little to no antiviral activity; also recorded: No inhibition
- EC50 [3, 41]: > 50000 nM
- EC50 [4]: 1300 nM
- EC50 [5]: 1000 nM
- reduction in virus yield [5]: greater than 5
- EC50 [6]: 1900 nM
- EC50 [7]: 1500 nM
- EC50 [8]: 2200 nM
- reduction in virus yield [9]: greater than 5
- EC50 [10]: 510 nM
- EC50 [11]: 1000 nM
- EC50 lower than the 50% cytotoxic concentrations [12]: at least 16 fold
- antiviral activity (active or not) [13]: active
- antiviral activity (active or not) ([13]; listed as GS-441524): shown to have activity
- antiviral activity (active or not) [14]: active
- antiviral activity (active or not) ([14]; listed as GS-441524): shown to have activity
- selectivity ratio [15]: 16
- selectivity ratio [16]: 38
- selectivity ratio [17]: 26
- selectivity ratio [18]: 22
- selectivity ratio [19]: 102
- selectivity ratio [20]: 98
- selectivity ratio [21]: 50
- selectivity ratio [22]: 5
- selectivity ratio [23]: 79
- EC50 [24]: 49900 ± 2060 nM
- EC90 [24]: > 150000 nM
- EC50 [25]: 1610 ± 120 nM
- EC90 [25]: 6700 nM
- EC50 [26]: 3100 nM
- EC90 [26]: 11000 nM
- EC50 [27]: 1280 ± 140 nM
- EC90 [27]: 3300 nM
- EC50 ([28]; Huh-7): 1020 nM
- EC90 ([28]; Huh-7): 2500 nM
- EC50 [29]: 1570 ± 780 nM
- EC90 [29]: 5700 nM
- EC50 [30]: 2230 ± 1400 nM
- EC90 [30]: 4000 nM
- EC90 ([31]; HeLa): 1400 nM
- EC50 [32]: 2460 nM
- EC50 [33]: 520 ± 80 nM
- EC90 [33]: 1000 nM
- EC50 [34]: 990 ± 360 nM
- EC90 [34]: 2600 nM
- EC50 [35]: 7000 to 12000 nM
- EC90 [35]: 26300 nM
- EC50 [36]: 630 nM
- EC90 [36]: 2200 nM
- EC50 [37]: > 50000 nM
- EC50 [38]: 51200 nM
- EC90 [38]: > 150000 nM
- CC50 at 72 h [39]: > 50000 nM
- CC50 at 72 h [40]: > 50000 nM
